Test system: phosphorylated histone 2AX (pH2AX)
Assay: pH2AX immunoblot in mouse progeroid cells
Type: cell-based
Details: Lmna^G609G/G609G fibroblasts, 5 µM, relative to GAPDH
Experimental: Confocal fluorescence microscopy images are representative of 2 independent experiments. […] Representative cropped immunoblots are shown. […] MW, molecular weight (in kDa) markers. (C) PROTAC 2 decreases senescence‐associated β‐galactosidase (SA‐βgal) activity, interleukin (IL) 1α and p16 senescent markers. Lmna^G609G/G609G (G609G) or Lmna^+/+ (WT) fibroblasts were incubated with vehicle or compound 2 (5 µM). […] Data were analysed using one‐way ANOVA followed by Dunnett's post–hoc test. ^*, p < 0.05; ^**, p < 0.01, ^***, p < 0.001, ^****, p < 0.0001 vs G609G cells. […]
compound exposure. […] Samples were analysed by electrophoresis in polyacrylamide gels (All Kd SDS-PAGE, BioRad) and the proteins transferred to nitrocellulose membranes (GE Healthcare, Amersham). […]
GAPDH (Cell Signaling, 2118S, 1:5000) and anti-actin (Santa Cruz Biotechnology, sc-376248, 1:500) as antibodies for loading control. […] The bands were quantified by densitometry using the […]
Quantification of different proteins intensity was performed using ImageJ (NIH) except for nuclear rim progerin intensity with Cell Profiler (Broad Institute). […]
SA β-galactosidase activity was determined by the FDG method. […]

For `CC1(C)Oc2cc3oc(=O)ccc3cc2C[C@@H]1OC(=O)CCCCCNc1cccc2c1C(=O)N(C1CCC(=O)NC1=O)C2=O` (stereo partly shown) [compound 2], the “levels of phosphorylated histone 2AX (pH2AX)” value was “reduces the levels of phosphorylated histone 2AX”.
